Reference: patent US20230002377A1, “THERAPEUTIC COMBINATIONS OF DRUGS AND METHODS OF USING THEM” (HARMONY BIOSCIENCES, LLC, priority 2020, published 2023)

Target: Transporter, Norepinephrine (NET) (Homo sapiens, UniProt P23975)
Assay: NET radioligand binding ([125I] RTI-55), Eurofins
Settings: read-out: NET, % inhibition, 10 nM compound
Method: Source: Human recombinant MDCK cells;
Incubation Time/Temp: 3 hours @ 4° C.;
Incubation Buffer: 50 mM Tris-HCl, pH 7.4, 100 mM NaCl, 1 μM Leupeptin, 10 μM PMSF;
Non-Specific Ligand: 10.0 μM Desipramine;
Quantitation Method: Radioligand Binding;

Sequence of Transporter, Norepinephrine (NET) (P23975 whole entry): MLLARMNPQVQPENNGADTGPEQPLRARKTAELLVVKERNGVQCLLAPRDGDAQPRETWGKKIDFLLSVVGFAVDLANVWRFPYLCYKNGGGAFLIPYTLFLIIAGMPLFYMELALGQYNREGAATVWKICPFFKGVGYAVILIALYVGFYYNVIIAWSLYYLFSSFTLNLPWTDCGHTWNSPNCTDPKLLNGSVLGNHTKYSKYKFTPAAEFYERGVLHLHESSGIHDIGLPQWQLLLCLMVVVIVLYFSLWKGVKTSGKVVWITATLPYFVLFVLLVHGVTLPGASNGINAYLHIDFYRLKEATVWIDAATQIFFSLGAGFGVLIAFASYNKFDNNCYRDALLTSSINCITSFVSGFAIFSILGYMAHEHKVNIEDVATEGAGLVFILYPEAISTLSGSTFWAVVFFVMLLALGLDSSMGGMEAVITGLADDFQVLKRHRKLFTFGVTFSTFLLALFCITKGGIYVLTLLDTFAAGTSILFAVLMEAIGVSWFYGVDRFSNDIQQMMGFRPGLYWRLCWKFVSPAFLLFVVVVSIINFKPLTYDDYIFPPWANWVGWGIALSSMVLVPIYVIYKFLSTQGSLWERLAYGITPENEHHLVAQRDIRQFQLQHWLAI

Clc1ccc(C2CNCc3cc(-c4ccc5ncnn5c4)ccc32)cc1Cl (stereo not shown) [Formula I, 7-([1,2,4]triazolo[1,5-a]pyridin-6-yl)-4-(3,4-dichlorophenyl)-1,2,3,4-tetrahydroisoquinoline]
inhibition at 0.01 µM: 35%
